Broadly, the IC50 is the concentration that inhibits the measured activity by half.

The values that follow come from patent publication EP0771196B1, “EXCITATORY AMINO ACID RECEPTOR ANTAGONISTS” (ELI LILLY AND COMPANY, priority 1994, dated 1996).

The subject of the first test is metabotropic glutamate receptors. Nature of the test: Displacement of 1S,3R-ACPD-sensitive [3H]glutamate binding to rat brain cell membranes. Conditions: crude membranes of rat forebrain; 10 µM compound. How it is done: The binding of [^3H]glutamate was conducted with crude membranes of rat forebrain as described by Schoepp and True. Schoepp and True, Neuroscience Lett., 145, 100-104 (1992) and True and Schoepp, Society for Neuroscience Abstracts, 19, 470 (1993). IC50 values for the inhibition of [^3H]glutamate binding, or the percent displacement of [^3H]glutamate binding at a 10 µM concentration, of the formula I compound, is shown in Table II.
`CC(C)C(N)(C(=O)O)[C@H]1C[C@@H]1C(=O)O` (mixture of isomers) [Example 14, 2SR- and 2RS-2-amino-2-(1SR,2SR-2-carboxycyclopropan-1-yl)-3-methylbutanoic acid]: the “ACPD-Sensitive [^3H]Glutamate Binding % Displacement at 10 µM” value was “(17%)”.

The same test, now with this note: crude membranes of rat forebrain; inhibition of [3H]glutamate binding.
In the case of “2R-2- amino-2-(1R,2R-2-carboxycyclopropan-1-yl)-3-(dibenzopyran-4-yl)propanoic acid [Example 74]”, the half-inhibitory concentration (IC50) turned out to be 4200 nM.
Still for that read-out and setting: with `CCCCCCCCC(N)(C(=O)O)[C@H]1C[C@@H]1C(=O)O` (mixture of isomers) [Example 13, 2SR- and 2RS-2-amino-2-(1SR,2SR-2-carboxycyclopropan-1-yl)decanoic acid] the figure was 1700 nM; with `CC(C)CC(N)(C(=O)O)[C@H]1C[C@@H]1C(=O)O` (mixture of isomers) [Example 15, 2SR- and 2RS-2-amino-2-(1SR,2SR-2-carboxycyclopropan-1-yl)-4-methylpentanoic acid], 700 nM; with `CC(C)CCC(N)(C(=O)O)[C@H]1C[C@@H]1C(=O)O` (mixture of isomers) [Example 16, 2SR- and 2RS-2-amino-2-(1SR,2SR-2-carboxycyclopropan-1-yl)-5-methylhexanoic acid], 1100 nM.
The same measure, in the same setting: with `CC(C)CCCC(N)(C(=O)O)[C@H]1C[C@@H]1C(=O)O` (mixture of isomers) [Example 17, 2SR- and 2RS-2-amino-2-(1SR, 2SR-2-carboxycyclopropan-1-yl)-6-methylheptanoic acid] the figure was 850 nM; with `NC(CCc1cccc2ccccc12)(C(=O)O)[C@H]1C[C@@H]1C(=O)O` (mixture of isomers) [Example 18, 2SR- and 2RS-2-amino-2-(1SR,2SR-2-carboxycyclopropan-1-yl)-4-(naphth-1-yl)butanoic acid], 140 nM.
The same measure, in the same setting: with `NC(CCc1ccc2ccccc2c1)(C(=O)O)[C@H]1C[C@@H]1C(=O)O` (mixture of isomers) [Example 19, 2SR- and 2RS-2-amino-2-(1SR,2SR-2-carboxycyclopropan-1-yl)-4-(naphth-2-yl)butanoic acid] the figure was 2800 nM.
Molecule `Cc1ccccc1CCC(N)(C(=O)O)[C@H]1C[C@@H]1C(=O)O` (mixture of isomers) [Example 20, 2SR- and 2RS-2-amino-2-(1SR,2SR-2-carboxycyclopropan-1-yl)-4-(2-methylphenyl)butanoic acid] returned an IC50 of 570 nM.
Molecule `Cc1cccc(CCC(N)(C(=O)O)[C@H]2C[C@@H]2C(=O)O)c1` (mixture of isomers) [Example 21, 2SR- and 2RS-2-amino-2-(1SR,2SR-2-carboxycyclopropan-1-yl)-4-(3-methylphenyl)butanoic acid] gave a half-inhibitory concentration (IC50) of 38 nM.
The same measure, in the same setting: with `Cc1ccc(CCC(N)(C(=O)O)[C@H]2C[C@@H]2C(=O)O)cc1` (mixture of isomers) [Example 22, 2SR- and 2RS-2-amino-2-(1SR,2SR-2-carboxycyclopropan-1-yl)-4-(4-methylphenyl)butanoic acid] the figure was 590 nM.
Turning to `NC(CCc1ccccc1Cl)(C(=O)O)[C@H]1C[C@@H]1C(=O)O` (mixture of isomers) [Example 23, 2SR- and 2RS-2-amino-2-(1SR,2SR-2-carboxycyclopropan-1-yl)-4-(2-chlorophenyl)butanoic acid], the concentration for half-maximal inhibition (IC50) was determined as 260 nM.
In turn, `NC(CCc1cccc(Cl)c1)(C(=O)O)[C@H]1C[C@@H]1C(=O)O` (mixture of isomers) [Example 24, 2SR- and 2RS-2-amino-2-(1SR,2SR-2-carboxycyclopropan-1-yl)-4-(3-chlorophenyl)butanoic acid] registered a concentration for half-maximal inhibition (IC50) of 110 nM.
The same measure, in the same setting: with `NC(CCc1ccc(-c2ccccc2)cc1)(C(=O)O)[C@H]1C[C@@H]1C(=O)O` (mixture of isomers) [Example 49, 2SR- and 2RS-2-amino-2-(1SR,2SR-2-carboxycyclopropan-1-yl)-4-(4-biphenyl)butanoic acid] the figure was 1500 nM; with `NC(CCc1c(F)c(F)c(F)c(F)c1F)(C(=O)O)[C@H]1C[C@@H]1C(=O)O` (mixture of isomers) [Example 50, 2SR- and 2RS-2-amino-2-(1SR,2SR-2-carboxycyclopropan-1-yl)-4-(2,3,4,5,6-pentafluorophenyl)butanoic acid], 370 nM; with `COc1cccc(CCC(N)(C(=O)O)[C@H]2C[C@@H]2C(=O)O)c1OC` (mixture of isomers) [Example 52, 2SR- and 2RS-2-amino-2-(1SR,2SR-2-carboxycyclopropan-1-yl)-4-(2,3-dimethoxyphenyl)butanoic acid], 4900 nM.
Same read-out and setting: with `COc1cc(CCC(N)(C(=O)O)[C@H]2C[C@@H]2C(=O)O)cc(OC)c1` (mixture of isomers) [Example 53, 2SR- and 2RS-2-amino-2-(1SR,2SR-2-carboxycyclopropan-1-yl)-4-(3,5-dimethoxyphenyl)butanoic acid] the figure was 95 nM; with `NC(CCc1ccc(F)cc1)(C(=O)O)[C@H]1C[C@@H]1C(=O)O` (mixture of isomers) [Example 54, 2SR- and 2RS-2-amino-2-(1SR,2SR-2-carboxycyclopropan-1-yl)-4-(4-fluorophenyl)butanoic acid], 23 nM; with `NC(CCc1ccccc1F)(C(=O)O)[C@H]1C[C@@H]1C(=O)O` (mixture of isomers) [Example 55, 2SR- and 2RS-2-amino-2-(1SR,2SR-2-carboxycyclopropan-1-yl)-4-(2-fluorophenyl)butanoic acid], 120 nM.
The same measure, in the same setting: with `NC(CCc1ccc(C(F)(F)F)cc1)(C(=O)O)[C@H]1C[C@@H]1C(=O)O` (mixture of isomers) [Example 56, 2SR- and 2RS-2-amino-2-(1SR,2SR-2-carboxycyclopropan-1-yl)-4-(4-(trifluoromethyl)phenyl)butanoic acid] the figure was 610 nM; with `NC(CCc1ccccc1C(F)(F)F)(C(=O)O)[C@H]1C[C@@H]1C(=O)O` (mixture of isomers) [Example 57, 2SR- and 2RS-2-amino-2-(1SR,2SR-2-carboxycyclopropan-1-yl)-4-(2-(trifluoromethyl)phenyl)butanoic acid], 480 nM; with `NC(CCc1cccs1)(C(=O)O)[C@H]1C[C@@H]1C(=O)O` (mixture of isomers) [Example 58, 2SR- and 2RS-2-amino-2-(1SR,2SR-2-carboxycyclopropan-1-yl)-4-(2-thienyl)butanoic acid], 580 nM.
As for `NC(CCc1ccsc1)(C(=O)O)[C@H]1C[C@@H]1C(=O)O` (mixture of isomers) [Example 59, 2SR- and 2RS-2-amino-2-(1SR,2SR-2-carboxycyclopropan-1-yl)-4-(3-thienyl)butanoic acid], the 50% inhibitory concentration (IC50) was found to be 210 nM.
On the same count and under the same terms, with `NC(CCc1cccc(Oc2ccccc2)c1)(C(=O)O)[C@H]1C[C@@H]1C(=O)O` (mixture of isomers) [Example 60, 2SR- and 2RS-2-amino-2-(1SR,2SR-2-carboxycyclopropan-1-yl)-4-(3-phenoxyphenyl)butanoic acid] the figure was 170 nM.
The same measure, in the same setting: with `Cn1cc(CCC(N)(C(=O)O)[C@H]2C[C@@H]2C(=O)O)c2ccccc21` (mixture of isomers) [Example 61, 2SR- and 2RS-2-amino-2-(1SR,2SR-2-carboxycyclopropan-1-yl)-4-(1-methylindol-3-yl)butanoic acid] the figure was 280 nM.
